Earlier results in patent US20170224936A1, “Nasal treatment delivery device with carbon dioxide and saline, and methods” (priority 2016, published 2017).

Legend:
[1] = carbon dioxide gas treatments per Capnia prior art to Rasor et al

sensation during exposure (during exposure to CO(2)): transient burning sensation
severe stinging [1]: had occurred
Compound: O=C=O [CO(2), carbon dioxide]
sneezes (20-second exposure, compared with no treatment, p=0.05): significant reduction
histamine levels in ipsilateral nasal secretions (after pretreatment with CO(2)): did not increase
ipsilateral secretion weights (compared with no treatment): numerically reduced
bilateral runny nose symptoms (compared with no treatment, p=0.01): significant reduction
contralateral secretion weights (compared with no treatment, p=0.04): significant reduction
